Experimental data as given in ChEMBL document CHEMBL1914458 (Eur J Med Chem, 2011).

Assays:
[1] = Antioxidant activity assessed as trolox equivalent of AAPH-induced peroxyl radical scavenging activity at 0.5 to 10 uM after 10 mins by oxygen radical absorbance capacity-fluorescein assay; type: functional
[2] = biological target: Cholinesterase (Equus caballus, UniProt P81908)
[3] = biological target: Acetylcholinesterase (Electrophorus electricus, UniProt O42275)
[4] = Inhibition of self-mediated amyloid beta (1 to 42) aggregation at 10 uM after 48 hrs by thioflavin T fluorescence assay
[5] = Inhibition of self-mediated amyloid beta (1 to 42) aggregation at 20 uM after 48 hrs by thioflavin T fluorescence assay

Sequence of Acetylcholinesterase (O42275 whole entry): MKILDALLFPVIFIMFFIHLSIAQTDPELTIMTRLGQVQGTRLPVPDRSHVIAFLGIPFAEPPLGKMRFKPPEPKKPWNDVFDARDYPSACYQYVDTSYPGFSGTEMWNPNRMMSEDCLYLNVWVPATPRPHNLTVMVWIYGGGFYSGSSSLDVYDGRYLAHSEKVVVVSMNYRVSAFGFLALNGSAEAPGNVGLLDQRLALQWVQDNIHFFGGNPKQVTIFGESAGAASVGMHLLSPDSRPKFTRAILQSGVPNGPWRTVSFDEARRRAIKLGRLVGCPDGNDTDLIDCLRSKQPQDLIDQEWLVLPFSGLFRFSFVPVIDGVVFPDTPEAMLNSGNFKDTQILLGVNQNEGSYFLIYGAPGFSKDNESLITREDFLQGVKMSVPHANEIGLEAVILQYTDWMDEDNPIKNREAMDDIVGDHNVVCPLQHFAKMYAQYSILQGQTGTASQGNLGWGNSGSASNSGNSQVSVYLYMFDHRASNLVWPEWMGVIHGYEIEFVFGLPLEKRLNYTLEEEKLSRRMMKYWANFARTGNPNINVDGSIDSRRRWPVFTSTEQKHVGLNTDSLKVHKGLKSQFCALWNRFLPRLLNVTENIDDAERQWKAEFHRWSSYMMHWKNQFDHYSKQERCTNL
Sequence of Cholinesterase (P81908 whole entry): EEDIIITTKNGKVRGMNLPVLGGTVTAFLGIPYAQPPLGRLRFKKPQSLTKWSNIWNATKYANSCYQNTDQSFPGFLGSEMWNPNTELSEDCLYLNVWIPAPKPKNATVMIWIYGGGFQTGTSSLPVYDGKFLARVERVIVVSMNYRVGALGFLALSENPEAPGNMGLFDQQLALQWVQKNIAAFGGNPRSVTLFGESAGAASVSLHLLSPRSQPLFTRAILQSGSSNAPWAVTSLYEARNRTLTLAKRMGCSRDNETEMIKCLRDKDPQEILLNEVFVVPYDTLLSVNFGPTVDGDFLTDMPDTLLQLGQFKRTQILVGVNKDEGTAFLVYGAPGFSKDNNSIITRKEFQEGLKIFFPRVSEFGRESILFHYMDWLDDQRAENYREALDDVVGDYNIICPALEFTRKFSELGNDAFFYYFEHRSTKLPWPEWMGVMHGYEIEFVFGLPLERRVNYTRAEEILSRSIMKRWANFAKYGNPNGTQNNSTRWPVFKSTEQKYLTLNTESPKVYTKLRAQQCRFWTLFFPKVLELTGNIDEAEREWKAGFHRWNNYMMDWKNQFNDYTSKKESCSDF

Row | Compound | Ratio [1] | IC50 [2] | IC50 [3] | inhibition [4] | inhibition [5]
1 | COc1ccc2cc3[n+](cc2c1NC(C)c1ccccc1)CCc1cc2c(cc1-3)OCO2 (stereo unspecified) | 2.17 | 3280 nM | 1910 nM |  | 
2 | COc1ccc2cc3[n+](cc2c1NCCc1ccc([N+](=O)[O-])cc1)CCc1cc2c(cc1-3)OCO2 | 2.83 | 841 nM | 693 nM | 73.7% | 82.6%
3 | COc1ccc2cc3[n+](cc2c1NCCc1ccc(F)cc1)CCc1cc2c(cc1-3)OCO2 | 4.48 | 445 nM | 238 nM | 76.3% | 90.4%
4 | COc1ccc2cc3[n+](cc2c1NCCc1ccc(Cl)cc1Cl)CCc1cc2c(cc1-3)OCO2 | 3.36 | 424 nM | 130 nM | 81.3% | 93.6%
5 | COc1ccc2cc3[n+](cc2c1OCCCCOc1ccccc1)CCc1cc2c(cc1-3)OCO2 | 1 |  |  |  | 
6 | COc1ccc(CCNc2c(OC)ccc3cc4[n+](cc23)CCc2cc3c(cc2-4)OCO3)cc1 | 4.68 | 2880 nM | 990 nM | 79% | 91.1%
7 | COc1ccc2cc3[n+](cc2c1NCCc1ccccc1C)CCc1cc2c(cc1-3)OCO2 | 4.05 | 713 nM | 27 nM | 80% | 95%
8 | COc1ccc2cc3[n+](cc2c1NCCCCCCOc1ccccc1)CCc1cc2c(cc1-3)OCO2 | 2.8 | 1300 nM | 1420 nM |  | 
9 | COc1ccc2cc3[n+](cc2c1NCCCN(C)C)CCc1cc2c(cc1-3)OCO2 | 5.7 | 6320 nM | 576 nM |  | 
10 | COc1ccc2cc3[n+](cc2c1NCCCOc1ccccc1)CCc1cc2c(cc1-3)OCO2 | 5.4 | 216 nM | 588 nM |  | 
11 | COc1ccc2cc3[n+](cc2c1NCCc1ccc(C)cc1)CCc1cc2c(cc1-3)OCO2 | 4.56 | 821 nM | 449 nM | 80% | 94%
12 | COc1ccc2cc3[n+](cc2c1NCC(C)C)CCc1cc2c(cc1-3)OCO2 | 5.12 | 2020 nM | 1140 nM |  | 
13 | COc1ccc2cc3[n+](cc2c1NCCc1ccccn1)CCc1cc2c(cc1-3)OCO2 | 6.4 | 2500 nM | 1160 nM |  | 
14 | COc1ccc2cc3[n+](cc2c1NCCCCOc1ccccc1)CCc1cc2c(cc1-3)OCO2 | 3.68 | 1200 nM | 349 nM |  | 
15 | COc1ccc2cc3[n+](cc2c1NCCCCOc1cccc2ccccc12)CCc1cc2c(cc1-3)OCO2 | 2.49 | 511 nM | 400 nM |  | 
16 | COc1ccc2cc3[n+](cc2c1NCCCCOc1cccnc1)CCc1cc2c(cc1-3)OCO2 | 4.63 | 2940 nM | 1170 nM |  | 
17 | COc1ccc2cc3[n+](cc2c1NCCCCCOc1ccccc1)CCc1cc2c(cc1-3)OCO2 | 3.64 | 1560 nM | 1090 nM |  | 
18 | COc1ccc2cc3[n+](cc2c1NCCc1ccccc1)CCc1cc2c(cc1-3)OCO2 | 4.8 | 406 nM | 209 nM | 79.2% | 92.2%
19 | COc1ccc2cc3[n+](cc2c1NCCCc1ccccc1)CCc1cc2c(cc1-3)OCO2 | 3.51 | 785 nM | 680 nM |  | 
20 | COc1ccc2[nH]cc(CCNc3c(OC)ccc4cc5[n+](cc34)CCc3cc4c(cc3-5)OCO4)c2c1 | 6.06 | 1390 nM | 1260 nM |  | 
21 | COc1ccc2cc3[n+](cc2c1NCc1ccccc1)CCc1cc2c(cc1-3)OCO2 | 4.32 | 2280 nM | 936 nM |  | 
22 | COc1ccc(CCNc2c(OC)ccc3cc4[n+](cc23)CCc2cc3c(cc2-4)OCO3)cc1OC | 5.3 | 5820 nM | 160 nM | 54.1% | 70.1%
23 | COc1cc(/C=C/C(=O)CC(=O)/C=C/c2ccc(O)c(OC)c2)ccc1O |  |  |  | 30.7% | 
24 | COc1ccc2cc3[n+](cc2c1NCCOc1ccccc1)CCc1cc2c(cc1-3)OCO2 | 5.15 | 727 nM | 688 nM |  | 
25 | COc1ccc2cc3[n+](cc2c1NCCc1cccs1)CCc1cc2c(cc1-3)OCO2 | 4.18 | 555 nM | 608 nM | 72.8% | 87.8%
26 | COc1ccc2cc3[n+](cc2c1NCCc1cccc(C)c1)CCc1cc2c(cc1-3)OCO2 | 4.73 | 674 nM | 91 nM | 79% | 93.6%
27 | COc1ccc2cc3[n+](cc2c1OC)CCc1cc2c(cc1-3)OCO2 |  |  |  | 8.9% | 36.3%
